According to patent US6903126B2, “1-Aryl-2-N-, S- or O-substituted benzimidazole derivatives, their use for the production of pharmaceutical agents as well as pharmaceutical preparations that contain these derivatives” (Schering AG, priority 2001, dated 2005):
pIC50: −log10 of the molar value.

Test system: primary rat microglia
Assay: Inhibition of microglia activation (Aβ-peptide stimulation, MTS reduction)
Assay type: cell-based
Details: Aβ-peptide-activated primary rat microglia, compound added day 5, MTS reduction on day 7, relative to DMSO control
Procedure: For in vitro production of Aβ-activated microglia, primary rat microglia with synthetic Aβ-peptide are incubated:
For simulation of Aβ deposits, synthetic Aβ peptide is dried on 96-hole tissue culture plates. A peptide stock solution is diluted by 2 mg/ml of H2O 1:50 in H2O. To coat the 96-hole plates, 30 μl of this dilute peptide solution/hole is used, and it is dried overnight at room temperature.
Primary rat microglia are harvested by mixed glia cultures, which were obtained from P3 rat brains. In the production of mixed glia cultures, the brains are taken from 3-day-old rats, and meninges are removed. The isolation of cells is achieved by trypsinization (0.25% trypsin solution, 15 minutes, 37° C.)). After undigested tissue fragments are separated with the aid of a 40 μm nylon mesh, the isolated cells are centrifuged off (800 rpm/10 minutes). The cell pellet is resuspended in the culture medium and moved into 100 ml tissue culture flasks (1 brain/tissue culture flask). […]
To quantify the microglia reactivity, the metabolic activity is measured on cultivation day 7 via the reduction of MTS (3-(4,5-dimethylthiazol-2-yl)-5-(3-carboxymethoxyphenyl)-2-(sulfophenyl)-2H-tetrazolium), Owen's reagent, Baltrop, J. A. et al. Bioorg. & Med. Chem. Lett., 1, 6111 (1991)). […]

`COC(=O)CCCCCOc1ccc2nc(N3CCOCC3)n(-c3ccccc3)c2c1` [Example 15, 6-[[2-(Morpholin-4-yl)-1-phenyl-1H-benzimidazol-6-yl]oxy]hexanoic acid methyl ester] showed a pIC50 of 6.06.
`COC(=O)CCCCCOc1ccc2nc(S(=O)(=O)Cc3ccccc3)n(-c3ccc(C)cc3)c2c1` [Example 9, 6-[[1-(4-Methylphenyl)-2-(phenylmethanesulfonyl)-1H-benzimidazol-6-yl]oxy]hexanoic acid methyl ester] showed a pIC50 of 6.34.
